Consider 52 molecules from PubChem BioAssay AID1996.

Values after ≈ are worked out from the molar mass of the structure shown.

For the data set the following is noted: buffer; pH 7.4; 200.0 µM.
For orientation: solubility (kinetic) means solubility judged after dilution from a stock solution rather than from solid. Take `CCN(CC)C(=O)c1ccc(-c2nnc(OC)c3ccccc23)cc1`: the solubility (kinetic) is over 50.3 µg/mL.
The same measure for `CN(C)c1cccc(C(=O)OCC(=O)N2CCc3ccccc3C2)c1`: 27.9 µg/mL (≈ 82.4 µM); for `COc1cccc(CNC(=S)NC2CC2)c1`: 35.2 µg/mL (≈ 149 µM).
With `CN(C(=O)COC(=O)c1ccccc1C(=O)c1ccccc1)c1ccccc1` the figure was 42.7 µg/mL (≈ 114 µM); with `CCOC(=O)C1=C(C)Nc2nc3ccccc3n2C1c1ccc(O)cc1` (configuration not stated), under 0.2 µg/mL.
Molecule `CCOc1ccc(NC(=O)CCC(=O)Oc2ccc(C)cc2)cc1` returned a kinetic solubility of 19.5 µg/mL (≈ 59.6 µM).
With `C=C(C)c1cccc(C(C)(C)NC(=O)NCc2cccnc2)c1`, the kinetic solubility was over 46.4 µg/mL.
With `CC12COC3(C(=O)Nc4ccccc4)CC1CCC32C` (configuration not stated) the figure was over 40.7 µg/mL; with `O=C1C(C=Nc2ccc(F)cc2)=C(O)c2ccccc21`, under 0.6 µg/mL.
The same measure for `O=c1[nH]c(=O)n(-c2ccc(Br)cc2)c(O)c1C=NCCN1CCCCC1`: 60.5 µg/mL (≈ 144 µM).
As for `COCCCN=CC1=C(O)CC(c2ccccc2)CC1=O` (configuration not stated), the kinetic solubility was over 43.1 µg/mL.
As for `Cc1ccn2c(NC3CCCC3)c(-c3cccs3)nc2c1.Cl`, the solubility (kinetic) amounted to 14.7 µg/mL.
In the case of `C#CCSc1nc(C)cc(C(=O)OCC)c1C#N`, the solubility (kinetic) worked out at 7.2 µg/mL (≈ 27.7 µM).
Molecule `NC(=O)c1ccc(NC(=O)CCNC(=O)c2ccco2)cc1` returned a kinetic solubility of 41.2 µg/mL (≈ 137 µM).
In the case of `CC(=O)Nc1ccc(S(=O)(=O)NC(C)(C#N)C2CC2)cc1` (configuration not stated), the solubility (kinetic) is over 46.1 µg/mL.
Take `CC(C)(C)N1CC(C(=O)Nc2ccc(C#N)cc2)CC1=O` (configuration not stated): the solubility (kinetic) came to 40.2 µg/mL (≈ 141 µM).
On to `CCOC(=O)C1CCCN(C(=O)CN2C(=O)c3ccccc3S2(=O)=O)C1` (configuration not stated), for which the solubility (kinetic) is over 57.1 µg/mL.
Take `CCOP(=O)(OCC)C(Nc1ccc(F)cc1)c1ccccc1` (configuration not stated): the solubility (kinetic) is over 50.6 µg/mL.
With `CN(CC(=O)Nc1ccc(S(N)(=O)=O)cc1)C1CCCCC1` the figure was over 48.8 µg/mL; with `CC(=O)Nc1ccc(S(=O)(=O)NCCN2CCNC2=O)cc1Cl`, over 54.1 µg/mL.
Regarding `CCOc1ccc(S(=O)(=O)n2cnc(C)c2)cc1`, the solubility (kinetic) amounted to 38.5 µg/mL (≈ 145 µM).
In the case of `CCCC(=O)Nc1ccc2oc(-c3cncc(Br)c3)nc2c1`, the solubility (kinetic) is 0.6 µg/mL (≈ 1.67 µM).
Consider `Cc1cc(NC(=O)COC(=O)c2ccco2)no1`, for which the kinetic solubility was over 37.5 µg/mL.
With `CC(=O)c1c(C)[nH]c(C(=O)OCC(=O)Nc2ccc3c(c2)OCCO3)c1C` the figure was 3.8 µg/mL (≈ 10.2 µM); with `O=C(COC(=O)c1cc[n+]([O-])cc1)Nc1ccc(Cl)c(C(F)(F)F)c1`, over 56.2 µg/mL.
With `Cl.NC(Cc1nc2ccccc2[nH]1)c1ccc(Cl)cc1` (configuration not stated) the figure was 37.7 µg/mL; with `CCOC(=O)CN/C=C(\C#N)c1ccc(F)cc1`, 36.4 µg/mL (≈ 147 µM).
The same measure for `CCn1cc(C2CC(=O)NC2=O)c2ccccc21` (configuration not stated): over 36.3 µg/mL.
Molecule `CCCNC(=S)N1CCCC(c2nc3ccccc3[nH]2)C1` (configuration not stated) had a kinetic solubility of 13.4 µg/mL (≈ 44.3 µM).
The molecule `COc1ccccc1C(=O)Nc1cc(-c2ccc(C)cc2)no1` returned a solubility (kinetic) of 0.5 µg/mL (≈ 1.62 µM). This solubility kinetic is about 27-fold lower than that of the molecule before.
On to `CCn1ccc(C(=O)NCc2ccc3c(c2)OCO3)n1`, for which the kinetic solubility was over 41 µg/mL.
With `O=C(c1cc(F)cc2c1OCOC2)N1CCN(c2ccc(F)cc2)CC1`, the solubility (kinetic) is over 54.1 µg/mL.
With `CC(=O)c1cccc(NC(=S)Nc2cccc3ccccc23)c1`, the kinetic solubility worked out at 10.6 µg/mL (≈ 33.1 µM).
As to `O=C(c1ccccc1[N+](=O)[O-])N1CCC2(CC1)OCCO2`, the kinetic solubility was over 43.8 µg/mL.
In the case of `O=C(O)CSc1nc2ccccc2n1Cc1ccccc1`, the kinetic solubility is over 44.8 µg/mL.
Turning to `Cc1cc(C(=O)Nc2ccc(Cl)cc2)c2ccccc2n1`, the solubility (kinetic) is under 0.3 µg/mL.
With `COc1ccccc1NS(=O)(=O)c1cccc(C(=O)N2CCCC2)c1` the figure was over 54.1 µg/mL.
Regarding `O=C(COC(=O)c1cc(=O)[nH]c2ccccc12)NCCc1ccccc1`, the solubility (kinetic) worked out at 21.1 µg/mL (≈ 60.2 µM).
As to `O=C(CCS(=O)(=O)c1ccccc1)N1CCOCC1`, the solubility (kinetic) is over 42.5 µg/mL.
As for `CCCNC(=O)CSc1nc(Cc2ccccc2)nc2ccccc12`, the kinetic solubility is 8.2 µg/mL (≈ 23.3 µM).
The same measure for `N#C/C(=C/c1ccc(O)c(O)c1)C(=O)NCc1ccc(Cl)cc1`: 44.9 µg/mL (≈ 137 µM).
Take `CCC(OC(=O)c1nsc(Cl)c1Cl)C(=O)NCCOC` (configuration not stated): the solubility (kinetic) was over 51.2 µg/mL.
Consider `COc1ccc(CNC(=O)c2cccc(NC(=O)CC3SC(N4CCCCC4)=NC3=O)c2)cc1` (configuration not stated), for which the kinetic solubility stood at 7.6 µg/mL (≈ 15.8 µM).
With `CCOC(CNc1ncnc2c1cnn2C)OCC` the figure was over 39.8 µg/mL; with `COc1ccccc1-n1c(-c2ccc(F)cc2)coc1=O`, 2.9 µg/mL (≈ 10.2 µM).
On to `O=C(NC(=S)N1CCCC1)c1ccc(Cl)cc1Cl`, for which the kinetic solubility was determined as 32.5 µg/mL (≈ 107 µM). Compared with the last molecule, the solubility kinetic is about 11-fold higher.
Regarding `CCOC(=O)C1(C(F)(F)F)N=C(c2ccccc2F)OC(N(C)C)=N1` (configuration not stated), the kinetic solubility is 42.2 µg/mL (≈ 117 µM).
The same measure for `Cc1ccc(C(=O)NCC(=O)NC23CC4CC(CC(C4)C2)C3)cc1`: 4.2 µg/mL (≈ 12.9 µM).
Molecule `CC1C2(C)OCC(C#N)(C(=N)O2)C1(C#N)C#N` (configuration not stated) gave a kinetic solubility of over 34.5 µg/mL.
Molecule `CCc1c(C)sc(NC(=S)Nc2cccnc2)c1C(=O)OC` showed a solubility (kinetic) of over 50.3 µg/mL.
Molecule `N#CC(c1ccccc1)N1CCOCC1` (configuration not stated) had a solubility (kinetic) of 20.7 µg/mL (≈ 102 µM).
With `CC1CN(C(=S)Nc2cccc([N+](=O)[O-])c2)CC(C)O1` (configuration not stated), the kinetic solubility is over 44.3 µg/mL.
